According to ChEMBL document CHEMBL1139959, “Optimization of triaryl bis-sulfones as cannabinoid-2 receptor ligands” (Bioorg Med Chem Lett, 2007):

Tests used:
Homo sapiens = species on record: Homo sapiens; assay: Selectivity for CB1 receptor over CB2 receptor
[1] = target: Cannabinoid receptor 2 (Homo sapiens) (UniProt P34972); assay: Binding affinity to CB2 receptor
in vivo = conditions: rat, plasma, po, 10 mg/kg
Description: AUC in rat at 10 mg/kg, po after 6 hrs

Chain of Cannabinoid receptor 2 (Homo sapiens) (P34972 whole entry, looked up): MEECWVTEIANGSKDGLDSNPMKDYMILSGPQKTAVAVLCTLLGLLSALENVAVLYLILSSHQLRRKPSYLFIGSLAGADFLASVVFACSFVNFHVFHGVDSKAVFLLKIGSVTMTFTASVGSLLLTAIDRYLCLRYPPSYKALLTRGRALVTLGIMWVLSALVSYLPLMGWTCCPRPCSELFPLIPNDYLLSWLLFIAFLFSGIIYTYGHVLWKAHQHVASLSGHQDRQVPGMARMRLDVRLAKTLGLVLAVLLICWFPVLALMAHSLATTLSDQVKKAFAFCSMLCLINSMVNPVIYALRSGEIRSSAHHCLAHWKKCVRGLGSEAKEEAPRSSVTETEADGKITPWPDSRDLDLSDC

Row | SMILES | Ratio Ki (Homo sapiens) | Ki [1] [nM] | AUC at 6 h (in vivo) [µM·h]
1 | C[C@H](NCC(F)(F)F)c1ccc(S(=O)(=O)c2ccc(Cl)cc2S(=O)(=O)c2ccccc2F)cc1 | 325 |  | 
2 | C[C@H](NS(=O)(=O)C(F)(F)F)c1ccc(S(=O)(=O)c2ccc(Cl)cc2S(=O)(=O)c2ccccn2)cc1 | 1150 | 3.6 | 
3 | C[C@H](NS(=O)(=O)C(F)(F)F)c1ccc(S(=O)(=O)c2ccc(Cl)cc2S(=O)(=O)NC(C)(C)C)cc1 | 123 | 136 | 
4 | C[C@H](N)c1ccc(S(=O)(=O)c2ccc(Cl)cc2S(=O)(=O)c2ccccc2F)cc1 | 14 |  | 
5 | C[C@H](NS(=O)(=O)C(F)(F)F)c1ccc(S(=O)(=O)c2ccc(Cl)cc2S(=O)(=O)c2c(F)cccc2F)cc1 | 642 | 5.8 | 
6 | C[C@H](NS(=O)(=O)C(F)(F)F)c1ccc(S(=O)(=O)c2ccc(Cl)cc2S(=O)(=O)N2CCCCC2)cc1 | 231 | 58 | 
7 | C[C@H](NS(C)(=O)=O)c1ccc(S(=O)(=O)c2ccc(Cl)cc2S(=O)(=O)c2cccc[n+]2[O-])cc1 | 840 |  | 
8 | CNc1cccc(F)c1S(=O)(=O)c1cc(Cl)ccc1S(=O)(=O)c1ccc([C@H](C)NS(=O)(=O)C(F)(F)F)cc1 | 212 |  | 
9 | C[C@H](NS(=O)(=O)C(F)(F)F)c1ccc(S(=O)(=O)c2ccc(Cl)cc2S(=O)(=O)c2c(F)cccc2NC2CC2)cc1 | 688 | 14.4 | 
10 | C[C@H](NS(=O)(=O)C(F)(F)F)c1ccc(S(=O)(=O)c2ccc(O)cc2S(=O)(=O)c2ccccc2F)cc1 | 1570 |  | 
11 | C[C@H](NS(C)(=O)=O)c1ccc(S(=O)(=O)c2ccc(Cl)cc2S(=O)(=O)c2ccccc2F)cc1 | 4390 |  | 6.33
12 | C[C@H](NS(=O)(=O)C(F)(F)F)c1ccc(S(=O)(=O)c2ccc(N3CCNCC3)cc2S(=O)(=O)c2ccccc2F)cc1 | 31 |  | 
13 | C[C@H](NS(=O)(=O)C(F)(F)F)c1ccc(S(=O)(=O)c2ccc(Cl)cc2S(=O)(=O)c2ncccn2)cc1 | 859 | 21 | 
14 | C[C@H](NS(=O)(=O)C(F)(F)F)c1ccc(S(=O)(=O)c2ccc(C(F)(F)F)cc2S(=O)(=O)c2ccccc2F)cc1 | 2080 |  | 
15 | C[C@H](NS(=O)(=O)C(F)(F)F)c1ccc(S(=O)(=O)c2ccccc2S(=O)(=O)c2ccccc2F)cc1 | 426 |  | 
16 | Cc1occc1S(=O)(=O)c1cc(Cl)ccc1S(=O)(=O)c1ccc([C@H](C)NS(C)(=O)=O)cc1 | 538 | 129 | 
17 | C[C@H](NS(=O)(=O)C(F)(F)F)c1ccc(S(=O)(=O)c2ccc(OC(F)(F)F)cc2S(=O)(=O)c2ccccc2F)cc1 | 525 |  | 
18 | C[C@H](NS(C)(=O)=O)c1ccc(S(=O)(=O)c2ccc(Cl)cc2S(=O)(=O)NS(C)(=O)=O)cc1 | 36 | 2750 | 
19 | CC(=O)N[C@@H](C)c1ccc(S(=O)(=O)c2ccc(Cl)cc2S(=O)(=O)c2ccccc2F)cc1 | 250 | 60.7 | 

Row | SMILES | Ratio Ki (Homo sapiens) | Ki [1] [nM] | AUC at 6 h (in vivo) [µM·h]
20 | Cc1ccc(S(=O)(=O)c2ccc([C@H](C)NS(=O)(=O)C(F)(F)F)cc2)c(S(=O)(=O)c2ccccc2F)c1 | 2290 | 1.1 | 
21 | C[C@H](NS(=O)(=O)C(F)(F)F)c1ccc(S(=O)(=O)c2ccc(Cl)cc2S(=O)(=O)c2c(F)cccc2N(C)C)cc1 | 60 | 115 | 
22 | C[C@H](NS(=O)(=O)C(F)(F)F)c1ccc(S(=O)(=O)c2ccc(Cl)cc2S(=O)(=O)c2c(N)cccc2F)cc1 | 1190 |  | 
23 | COCCOc1ccc(S(=O)(=O)c2ccc([C@H](C)NS(=O)(=O)C(F)(F)F)cc2)c(S(=O)(=O)c2ccccc2F)c1 | 1600 | 2.5 | 
24 | C[C@H](NS(C)(=O)=O)c1ccc(S(=O)(=O)c2ccc(Cl)cc2S(=O)(=O)c2ccccn2)cc1 | 4400 |  | 
25 | C[C@H](NS(=O)(=O)C(F)(F)F)c1ccc(S(=O)(=O)c2ccc(C3CC3)cc2S(=O)(=O)c2ccccc2F)cc1 | 2240 | 1.4 | 
26 | C[C@H](NS(=O)(=O)C(F)(F)F)c1ccc(S(=O)(=O)c2ccc(Cl)cc2S(=O)(=O)c2c(F)cccc2N2CCOCC2)cc1 | 18 |  | 
27 | C[C@H](NCCC(F)(F)F)c1ccc(S(=O)(=O)c2ccc(Cl)cc2S(=O)(=O)c2ccccc2F)cc1 | 105 |  | 
28 | CCOc1ccc(S(=O)(=O)c2ccc([C@H](C)NS(=O)(=O)C(F)(F)F)cc2)c(S(=O)(=O)c2ccccc2F)c1 | 1960 | 0.9 | 
29 | C[C@H](NS(=O)(=O)C(F)(F)F)c1ccc(S(=O)(=O)c2ccc(N)cc2S(=O)(=O)c2ccccc2F)cc1 | 170 |  | 
30 | C[C@H](NS(=O)(=O)C(F)(F)F)c1ccc(S(=O)(=O)c2ccc(Cl)cc2S(=O)(=O)N2CCOCC2)cc1 | 99 | 192 | 
31 | C[C@H](NS(=O)(=O)C(F)(F)F)c1ccc(S(=O)(=O)c2ccc(NC3CC3)cc2S(=O)(=O)c2ccccc2F)cc1 | 66 | 4.9 | 
32 | C[C@H](NS(C)(=O)=O)c1ccc(S(=O)(=O)c2ccc(Cl)cc2S(=O)(=O)C2CCCCC2)cc1 | 345 | 8.9 | 
33 | C[C@H](NC(=O)C(F)(F)F)c1ccc(S(=O)(=O)c2ccc(Cl)cc2S(=O)(=O)c2ccccc2F)cc1 | 784 |  | 
34 | CCNC(=O)N[C@@H](C)c1ccc(S(=O)(=O)c2ccc(Cl)cc2S(=O)(=O)c2ccccc2F)cc1 |  | > 10000 | 
35 | CNS(=O)(=O)c1cc(Cl)ccc1S(=O)(=O)c1ccc([C@H](C)NS(C)(=O)=O)cc1 | 64 |  | 
36 | C[C@H](NS(C)(=O)=O)c1ccc(S(=O)(=O)c2ccc(Cl)cc2S(=O)(=O)c2cccc3cccnc23)cc1 | 31 |  | 
37 | C[C@H](NS(C)(=O)=O)c1ccc(S(=O)(=O)c2ccc(Cl)cc2S(=O)(=O)N(C)C)cc1 | 58 |  | 
38 | CCCS(=O)(=O)c1cc(Cl)ccc1S(=O)(=O)c1ccc([C@H](C)NS(C)(=O)=O)cc1 | 57 |  | 
